Source: patent publication US20060069132A1, “Azolecarboxamide herbicides” (priority 2004, published 2006)

Legend:
[1] = system: velvetleaf; experiment: Test B pre-/postemergence herbicide test; format: in vivo, Abutilon theophrasti; conditions: for Velvetleaf plant response rating: scale 0 (no effect) to 100 (complete control)
Method in brief: (§1)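 Formulation: non-phytotoxic solvent mix with surfactant. Timing: preemergence on seed and postemergence on 2–18 cm plants, applied concurrently. Readout after 13–15 d greenhouse: visual 0–100 control rating against controls.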

[2] = system: barnyardgrass; experiment: Test C flooded paddy test; format: in vivo, Echinochloa crus-galli
Method in brief: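 Greenhouse test with a 12–14 day hold after application and visual comparison with controls. Emerged plants were 1- to 4-leaf stage (2–18 cm) when sprayed postemergence, and the paddy barnyardgrass was at 2 leaves under flooded conditions. 100 = complete control.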

[3] = system: rice; experiment: Test B flooded paddy test; format: in vivo, Oryza sativa; conditions: 1000 g ai/ha, scale 0 to 100 (0 no effect, 100 complete control)
Method in brief: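 Scale 0–100: zero equals no visible effect, 100 complete control, judged by eye relative to controls. Timing: 13 to 15 days in greenhouse post-treatment. Growth stage at spraying: two leaves (paddy) or one to four leaves, 2–18 cm (postemergence).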

[4] = system: barnyardgrass; experiment: Test B pre-/postemergence herbicide test; format: in vivo, Echinochloa crus-galli; conditions: for Barnyardgrass plant response rating: postemergence
Method in brief: (§2)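 Herbicidal effect was judged by eye on a 0–100 scale after plants stood 13 to 15 days in the greenhouse following pre- or postemergence treatment with surfactant-containing formulations.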

[5] = system: small flower umbrella sedge; experiment: Test B flooded paddy test; format: in vivo, Cyperus difformis; conditions: 1000 g ai/ha, scale 0 to 100 (0 no effect, 100 complete control)
Method in brief: (§3)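 Treated at 2-leaf (paddy) or 1–4-leaf, 2–18 cm (postemergence); greenhouse 13–15 d; visual score vs control, 0 none to 100 complete control; dash = not tested.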

[6] = system: ducksalad; experiment: Test C flooded paddy test; format: in vivo, Heteranthera limosa
[7] = system: wild oat; experiment: Test B postemergence herbicide test; format: in vivo, Avena fatua; conditions: scale 0 (no effect) to 100 (complete control)
Method in brief: (§4)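 Formulated test chemicals went onto postemergence plants measuring 2 to 18 cm, at one to four leaves. For the paddy assay, species had reached two leaves. Scoring took place 13–15 days later by eye, relative to untreated plants, using 0 for no effect up to 100 for full control.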

[8] = system: blackgrass; experiment: Test B postemergence herbicide test; format: in vivo, Alopecurus myosuroides; conditions: postemergence
Method in brief: as §3

[9] = system: giant foxtail; experiment: Test B pre-/postemergence herbicide test; format: in vivo, Setaria faberi; conditions: for Foxtail, Giant plant response rating: postemergence
Method in brief: as §1

[10] = system: lambsquarters; experiment: Test B pre-/postemergence herbicide test; format: in vivo, Chenopodium album; conditions: for Lambsquarters plant response rating: scale 0 (no effect) to 100 (complete control)
Method in brief: as §1

[11] = system: ducksalad; experiment: Test B flooded paddy test; format: in vivo, Heteranthera limosa; conditions: 1000 g ai/ha, scale 0 to 100 (0 no effect, 100 complete control)
Method in brief: as §3

[12] = system: smallflower umbrella sedge; experiment: Test C flooded paddy test; format: in vivo, Cyperus difformis
[13] = system: pigweed; experiment: Test B pre-/postemergence herbicide test; format: in vivo, Amaranthus retroflexus; conditions: for Pigweed plant response rating: scale 0 (no effect) to 100 (complete control)
Method in brief: as §1

[14] = system: cocklebur; experiment: Test B pre-/postemergence herbicide test; format: in vivo, Xanthium strumarium; conditions: for Cocklebur plant response rating: postemergence
Method in brief: as §2

[15] = system: Surinam grass; experiment: Test B pre-/postemergence herbicide test; format: in vivo, Urochloa decumbens; conditions: for Surinam Grass plant response rating: scale 0 (no effect) to 100 (complete control)
Method in brief: as §1

[16] = system: morningglory; experiment: Test B pre-/postemergence herbicide test; format: in vivo, Ipomoea coccinea; conditions: for Morningglory plant response rating: scale 0 (no effect) to 100 (complete control)
Method in brief: as §2

[17] = system: large crabgrass; experiment: Test B pre-/postemergence herbicide test; format: in vivo, Digitaria sanguinalis; conditions: for Crabgrass, Large plant response rating: postemergence
Method in brief: as §1

[18] = system: wheat; experiment: Test B postemergence herbicide test; format: in vivo, Triticum aestivum; set-up: key to Wheat plant response rating: 0 = no effect, 100 = complete control
Method in brief: as §4

[19] = system: rice; experiment: Test C flooded paddy test; format: in vivo, Oryza sativa
Method in brief: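 Plants were grown to the 1- to 4-leaf stage (2–18 cm) and then treated postemergence, or grown to the 2-leaf stage for the flooded paddy test. They were held in a greenhouse for 12 to 14 days and then scored by eye against controls, where 0 is no effect and 100 is complete control.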

[20] = system: barnyardgrass; experiment: Test B flooded paddy test; format: in vivo, Echinochloa crus-galli; conditions: 1000 g ai/ha, scale 0 to 100 (0 no effect, 100 complete control)
Method in brief: as §3

[21] = system: corn; experiment: Test B pre-/postemergence herbicide test; format: in vivo, Zea mays; conditions: for Corn plant response rating: postemergence
Method in brief: as §1

[22] = 125 g ai/ha, 0 is no effect, 100 is complete control, preemergence
[23] = 125 g ai/ha, visual rating, postemergence
[24] = 125 g ai/ha, scale 0 to 100 (0 no effect, 100 complete control)
[25] = 250 g ai/ha, scale of 0 to 100, 0 is no effect, 100 is complete control
[26] = 500 g ai/ha, visual rating after 12 to 14 days, scale 0 to 100 (0 no effect, 100 complete control)
[27] = 125 g ai/ha, visual rating, scale 0 (no effect) to 100 (complete control)
[28] = 500 g ai/ha, scale 0 to 100, 0 is no effect, 100 is complete control

CCc1nn(C(C)(C)C)nc1C(=O)Nc1cc(C(=O)N(C)CC)ccc1F [Compound 388]
Plant response rating (0 to 100 scale), Velvetleaf [1, 22]: 10 | Velvetleaf plant response rating [1, 23]: 20 | Velvetleaf plant response rating ([1]; Postemergence, 500 g ai/ha): 40 | Barnyardgrass plant response rating ([2]; 62 g ai/ha, scale 0 to 100 (0 no effect, 100 complete control)): 0 | Barnyardgrass plant response rating [2, 24]: 10 | Barnyardgrass plant response rating [2, 25]: 35 | Plant response rating, Barnyardgrass [2, 26]: 65 | Rice plant response rating [3]: 70 | Plant response rating (0 to 100 scale), Barnyardgrass [4, 22]: 50 | Barnyardgrass plant response rating [4, 27]: 0 | Barnyardgrass plant response rating [4, 28]: 10 | Sedge, Umbrella plant response rating [5]: 70 | Ducksalad plant response rating ([6]; 62 g ai/ha, scale 0 to 100): 0 | Ducksalad plant response rating [6, 24]: 0 | Ducksalad plant response rating [6, 25]: 45 | Plant response rating, Ducksalad [6, 26]: 80 | Oat, Wild plant response rating [7, 23]: 0 | Oat, Wild plant response rating ([7]; Postemergence, 500 g ai/ha): 10 | Blackgrass plant response rating [8, 27]: 0 | Blackgrass plant response rating [8, 28]: 20 | Plant response rating (0 to 100 scale), Foxtail, Giant [9, 22]: 20 | Foxtail, Giant plant response rating [9, 27]: 10 | Foxtail, Giant plant response rating [9, 28]: 30 | Plant response rating (0 to 100 scale), Lambsquarters [10, 22]: 90 | Lambsquarters plant response rating [10, 23]: 60 | Lambsquarters plant response rating ([10]; Postemergence, 500 g ai/ha): 70 | Ducksalad plant response rating [11]: 80 | Sedge, Umbrella plant response rating ([12]; 62 g ai/ha, scale 0 to 100): 65 | Sedge, Umbrella plant response rating [12, 24]: 70 | Sedge, Umbrella plant response rating [12, 25]: 75 | Plant response rating, Sedge, Umbrella [12, 26]: 80 | Plant response rating (0 to 100 scale), Pigweed [13, 22]: 80 | Pigweed plant response rating [13, 23]: 40 | Pigweed plant response rating ([13]; Postemergence, 500 g ai/ha): 50 | Plant response rating (0 to 100 scale), Cocklebur [14, 22]: 0 | Cocklebur plant response rating [14, 27]: 10 | Cocklebur plant response rating [14, 28]: 20 | Plant response rating (0 to 100 scale), Surinam Grass [15, 22]: 20 | Surinam Grass plant response rating [15, 23]: 10 | Surinam Grass plant response rating ([15]; Postemergence, 500 g ai/ha): 20 | Plant response rating (0 to 100 scale), Morningglory [16, 22]: 0 | Morningglory plant response rating [16, 23]: 10 | Morningglory plant response rating ([16]; Postemergence, 500 g ai/ha): 50 | Plant response rating (0 to 100 scale), Crabgrass, Large [17, 22]: 80 | Crabgrass, Large plant response rating [17, 27]: 20 | Crabgrass, Large plant response rating [17, 28]: 20 | Wheat plant response rating ([18]; 125 g ai/ha, visual rating, scale 0 (no effect) to 100 (complete control), postemergence): 0 | Wheat plant response rating ([18]; 500 g ai/ha, scale 0 to 100, 0 no effect, 100 complete control, preemergence): 90 | Wheat plant response rating ([18]; Postemergence, 500 g ai/ha, scale 0 (no effect) to 100 (complete control)): 10 | Rice plant response rating ([19]; 62 g ai/ha, scale 0 to 100): 15 | Rice plant response rating [19, 24]: 55 | Rice plant response rating [19, 25]: 65 | Plant response rating, Rice [19, 26]: 70 | Barnyardgrass plant response rating [20]: 70 | Plant response rating (0 to 100 scale), Corn [21, 22]: 30 | Corn plant response rating [21, 27]: 10 | Corn plant response rating [21, 28]: 20
